Test results reported in PubChem BioAssay (NCI).
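Briefly, cells in 96-well plates were exposed to five compound concentrations for 48 h, and endpoints were estimated by linear interpolation. The concentration for full growth arrest is given as TGI.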

Experiments:
Experiment in all cases: NCI tumour cell line growth inhibition, 48 h
[1] = tested on: MDA-MB-231 breast
[2] = tested on: OVCAR-3 ovarian
[3] = tested on: EKVX NSCLC
[4] = tested on: HCT-116 colon
[5] = tested on: TK-10 renal
[6] = tested on: UO-31 renal
[7] = tested on: NCI-H460 lung
[8] = tested on: K-562 leukemia
[9] = tested on: IGROV1 ovarian
[10] = tested on: NCI/ADR-RES ovarian
[11] = tested on: MDA-MB-435
[12] = tested on: MCF7 breast
[13] = tested on: SK-MEL-2 melanoma
[14] = tested on: HCT-15 colon
[15] = tested on: SF-539 CNS
[16] = tested on: KM12 colon
[17] = tested on: HS 578T breast
[18] = tested on: 786-0 renal
[19] = tested on: U251 CNS
[20] = tested on: SK-OV-3 ovarian
[21] = tested on: MDA-N
[22] = tested on: NCI-H226 lung
[23] = tested on: HT29 colon
[24] = tested on: DU-145 prostate
[25] = tested on: SK-MEL-5 melanoma
[26] = tested on: OVCAR-5 ovarian
[27] = tested on: HCC-2998 colon
[28] = tested on: M14 melanoma
[29] = tested on: LOX IMVI melanoma
[30] = tested on: OVCAR-4 ovarian
[31] = tested on: COLO 205 colon
[32] = tested on: BT-549 breast
[33] = tested on: A549 NSCLC
[34] = tested on: RPMI-8226 leukemia
[35] = tested on: HOP-62 NSCLC
[36] = tested on: MOLT-4 leukemia
[37] = tested on: T-47D breast
[38] = tested on: CCRF-CEM leukemia
[39] = tested on: NCI-H23 lung
[40] = tested on: UACC-257 melanoma
[41] = tested on: OVCAR-8 ovarian
[42] = tested on: SNB-75 CNS
[43] = tested on: SK-MEL-28 melanoma
[44] = tested on: ACHN renal
[45] = tested on: RXF 393 renal
[46] = tested on: SNB-19 CNS
[47] = tested on: PC-3 prostate
[48] = tested on: MALME-3M melanoma
[49] = tested on: UACC-62 melanoma
[50] = tested on: SF-268 CNS
[51] = tested on: SW-620 colon
[52] = tested on: HL-60(TB) leukemia
[53] = tested on: CAKI-1 renal
[54] = tested on: SN12C renal
[55] = tested on: SR leukemia
[56] = tested on: SF-295 CNS
[57] = tested on: HOP-92 NSCLC
[58] = tested on: NCI-H522 lung
[59] = tested on: A498 renal

Measured: TGI

CCOP(=O)(OCC)C(C)(C)OC(=O)NC(F)(F)F
> 100 µM: [1] | [2] | [3] | [4] | [5] | [6] | [7] | [8] | [9] | [10] | [11] | [12] | [13] | [14] | [15] | [16] | [17] | [18] | [19] | [20] | [21] | [23] | [24] | [25] | [26] | [27] | [28] | [29] | [30] | [31] | [32] | [33] | [34] | [35] | [36] | [37] | [38] | [39] | [40] | [41] | [42] | [43] | [44] | [45] | [46] | [47] | [48] | [49] | [50] | [51] | [52] | [53] | [54] | [55] | [56]
99.6 µM: [22]

CCC(=O)NC(Nc1ccccc1F)(C(F)(F)F)C(F)(F)F
> 100 µM: [1] | [57] | [2] | [3] | [4] | [5] | [6] | [7] | [8] | [9] | [10] | [11] | [12] | [13] | [14] | [15] | [16] | [17] | [19] | [20] | [21] | [23] | [24] | [25] | [26] | [27] | [28] | [29] | [30] | [31] | [32] | [33] | [34] | [36] | [37] | [38] | [39] | [40] | [41] | [42] | [43] | [44] | [45] | [46] | [47] | [49] | [50] | [58] | [51] | [52] | [53] | [54] | [55] | [56]

CN(C)CCNS(=O)(=O)N(C)C
> 100 µM: [1] | [57] | [2] | [3] | [4] | [5] | [7] | [8] | [9] | [10] | [11] | [12] | [13] | [14] | [15] | [16] | [17] | [18] | [19] | [20] | [21] | [22] | [23] | [24] | [25] | [26] | [28] | [29] | [30] | [31] | [32] | [33] | [34] | [59] | [35] | [36] | [37] | [38] | [39] | [40] | [41] | [42] | [43] | [44] | [45] | [46] | [47] | [48] | [49] | [50] | [58] | [51] | [52] | [53] | [54] | [55] | [56]
